Results published in patent US8633200B2, “Inhibitors of human immunodeficiency virus replication” (priority 2010, dated 2014).
Where two headings read alike, the source gives them in different places.

Test system: recombinant NL-Rluc virus (NL4-3 with Renilla Luciferase gene) in MT-2 cells
Assay: Inhibition of HIV replication (NL-Rluc luciferase reporter virus, MT-2 cells)
Format: cell-based, human immunodeficiency virus (HIV)
Settings: NL43, 120 h

Cc1nc2c(-c3cccc(-c4ccncc4)c3)cnn2c(-c2cc(F)c3c(c2C)CCCO3)c1C(OC(C)(C)C)C(=O)O (stereo not shown) [Example 135, 2-(tert-Butoxy)-2-(7-(8-fluoro-5-methylchroman-6-yl)-5-methyl-3-(3-(pyridin-4-yl)phenyl)pyrazolo[1,5-a]pyrimidin-6-yl)acetic acid]
EC50 (read-out: Activity): 0.1 to 1 µM

Cc1nc2c(-c3ccc(F)cc3)c(-c3ccccc3)nn2c(-c2cc(F)c3c(c2C)CCCO3)c1C(OC(C)(C)C)C(=O)O (stereo not shown) [Example 136, 2-(tert-Butoxy)-2-(7-(8-fluoro-5-methylchroman-6-yl)-3-(4-fluorophenyl)-5-methyl-2-phenylpyrazolo[1,5-a]pyrimidin-6-yl)acetic acid]
EC50 (read-out: Activity): > 1 µM
EC50 (read-out: EC50 μM): 1.6 µM

Cc1nc2c(-c3cc(F)c4c(c3C)CCCO4)c(-c3ccccc3)nn2c(-c2cc(F)c3c(c2C)CCCO3)c1C(OC(C)(C)C)C(=O)O (stereo not shown) [Example 137, 2-(3,7-Bis(8-fluoro-5-methylchroman-6-yl)-5-methyl-2-phenylpyrazolo[1,5-a]pyrimidin-6-yl)-2-(tert-butoxy)acetic acid]
EC50 (read-out: Activity): > 1 µM

Cc1nc2c(Br)c(-c3ccccc3)nn2c(-c2cc(F)c3c(c2C)CCCO3)c1[C@H](OC(C)(C)C)C(=O)O [Example 138, (2S)-2-(3-Bromo-7-(8-fluoro-5-methylchroman-6-yl)-5-methyl-2-phenylpyrazolo[1,5-a]pyrimidin-6-yl)-2-(tert-butoxy)acetic acid]
EC50 (read-out: Activity): 0.1 to 1 µM

Cc1nc2c(-c3cccc(Cl)c3)c(-c3ccccc3)nn2c(-c2cc(F)c3c(c2C)CCCO3)c1[C@H](OC(C)(C)C)C(=O)O [Example 140, (2S)-2-(tert-Butoxy)-2-(3-(3-chlorophenyl)-7-(8-fluoro-5-methylchroman-6-yl)-5-methyl-2-phenylpyrazolo[1,5-a]pyrimidin-6-yl)acetic acid]
EC50 (read-out: Activity): 0.1 to 1 µM
EC50 (read-out: EC50 μM): 1 µM

Cc1nc2c(-c3cccc(OCc4ccc(F)cc4)c3)c(-c3ccccc3)nn2c(-c2cc(F)c3c(c2C)CCCO3)c1[C@H](OC(C)(C)C)C(=O)O [Example 141, (2S)-2-(tert-Butoxy)-2-(7-(8-fluoro-5-methylchroman-6-yl)-3-(3-((4-fluorobenzyl)oxy)phenyl)-5-methyl-2-phenylpyrazolo[1,5-a]pyrimidin-6-yl)acetic acid]
EC50 (read-out: Activity): > 1 µM
EC50 (read-out: EC50 μM): 3.3 µM

Cc1nc2c(-c3ccc4c(cnn4C)c3)c(-c3ccccc3)nn2c(-c2cc(F)c3c(c2C)CCCO3)c1[C@H](OC(C)(C)C)C(=O)O [Example 142, (2S)-2-(tert-Butoxy)-2-(7-(8-fluoro-5-methylchroman-6-yl)-5-methyl-3-(1-methyl-1H-indazol-5-yl)-2-phenylpyrazolo[1,5-a]pyrimidin-6-yl)acetic acid]
EC50 (read-out: Activity): 0.1 to 1 µM

Cc1nc2c(Cl)c(C)nn2c(-c2cc(F)c3c(c2C)CCCO3)c1C(OC(C)(C)C)C(=O)O (stereo not shown) [Example 143, 2-(tert-Butoxy)-2-(3-chloro-7-(8-fluoro-5-methylchroman-6-yl)-2,5-dimethylpyrazolo[1,5-a]pyrimidin-6-yl)acetic acid]
EC50 (read-out: Activity): 0.1 to 1 µM

Cc1nc2c(Cl)c(C)nn2c(-c2ccc3c(c2)CCCO3)c1C(OC(C)(C)C)C(=O)O (stereo not shown) [Example 144, 2-(tert-Butoxy)2-(3-chloro-7-(chroman-6-yl)-2,5-dimethylpyrazolo[1,5-a]pyrimidin-6-yl)acetic acid]
EC50 (read-out: Activity): 0.1 to 1 µM

Cc1nc2cc(-c3cccc(Cl)c3)nn2c(C(C)C)c1[C@H](OC(C)(C)C)C(=O)O [Example 145, (S)-2-(tert-Butoxy)-2-(2-(3-chlorophenyl)-7-isopropyl-5-methylpyrazolo[1,5-a]pyrimidin-6-yl)acetic acid]
EC50 (read-out: Activity): > 1 µM

Cc1nc2cc(-c3cccc(Cl)c3)nn2c(CC(C)C)c1[C@H](OC(C)(C)C)C(=O)O [Example 146, (S)-2-(tert-Butoxy)-2-(2-(3-chlorophenyl)-7-isobutyl-5-methylpyrazolo[1,5-a]pyrimidin-6-yl)acetic acid]
EC50 (read-out: Activity): > 1 µM

Cc1nc2cc(-c3cccc(Cl)c3)nn2c(-c2ccc(F)cc2)c1[C@H](OC(C)(C)C)C(=O)O [Example 147, (S)-2-(tert-Butoxy)-2-(2-(3-chlorophenyl)-7-(4-fluorophenyl)-5-methylpyrazolo[1,5-a]pyrimidin-6-yl)acetic acid]
EC50 (read-out: Activity): > 1 µM

Cc1ccc(-c2c([C@H](OC(C)(C)C)C(=O)O)c(C)nc3cc(-c4cccc(Cl)c4)nn23)cc1 [Example 148, (S)-2-(tert-Butoxy)-2-(2-(3-chlorophenyl)-5-methyl-7-(p-tolyl)pyrazolo[1,5-a]pyrimidin-6-yl)acetic acid]
EC50 (read-out: Activity): 0.1 to 1 µM
EC50 (read-out: EC50 μM): 0.88 µM

Cc1nc2cc(-c3cccc(Cl)c3)nn2c(C2CCCCC2)c1[C@H](OC(C)(C)C)C(=O)O [Example 149, (S)-2-(tert-Butoxy)-2-(2-(3-chlorophenyl)-7-cyclohexyl-5-methylpyrazolo[1,5-a]pyrimidin-6-yl)acetic acid]
EC50 (read-out: Activity): > 1 µM

Cc1nc2cc(-c3ccc4c(c3)CCCC4)nn2c(-c2cc(F)c3c(c2C)CCCO3)c1[C@H](OC(C)(C)C)C(=O)O [Example 150, (2S)-2-(tert-Butoxy)-2-(7-(8-fluoro-5-methylchroman-6-yl)-5-methyl-2-(5,6,7,8-tetrahydronaphthalen-2-yl)pyrazolo[1,5-a]pyrimidin-6-yl)acetic acid]
EC50 (read-out: Activity): < 0.1 µM

Cc1nc2cc(-c3ccc4c(c3)CCCC4)nn2c(-c2ccc3c(c2)CCCO3)c1[C@H](OC(C)(C)C)C(=O)O [Example 151, (S)-2-(tert-Butoxy)-2-(7-(chroman-6-yl)-5-methyl-2-(5,6,7,8-tetrahydronaphthalen-2-yl)pyrazolo[1,5-a]pyrimidin-6-yl)acetic acid]
EC50 (read-out: Activity): < 0.1 µM

Cc1nc2cc(-c3ccc4c(c3)CCCC4)nn2c(-c2ccc(F)cc2)c1[C@H](OC(C)(C)C)C(=O)O [Example 152, (S)-2-(tert-Butoxy)-2-(7-(4-fluorophenyl)-5-methyl-2-(5,6,7,8-tetrahydronaphthalen-2-yl)pyrazolo[1,5-a]pyrimidin-6-yl)acetic acid]
EC50 (read-out: Activity): > 1 µM

Cc1ccc(-c2c([C@H](OC(C)(C)C)C(=O)O)c(C)nc3cc(-c4ccc5c(c4)CCCC5)nn23)cc1 [Example 153, (S)-2-(tert-Butoxy)-2-(5-methyl-2-(5,6,7,8-tetrahydronaphthalen-2-yl)-7-(p-tolyl)pyrazolo[1,5-a]pyrimidin-6-yl)acetic acid]
EC50 (read-out: Activity): 0.1 to 1 µM

Cc1nc2cc(-c3ccc4c(c3)CCCC4)nn2c(-c2ccc3c4c(ccnc24)CCO3)c1[C@H](OC(C)(C)C)C(=O)O [Example 154, (2S)-2-(tert-Butoxy)-2-(7-(2,3-dihydropyrano[4,3,2-de]quinolin-7-yl)-5-methyl-2-(5,6,7,8-tetrahydronaphthalen-2-yl)pyrazolo[1,5-a]pyrimidin-6-yl)acetic acid]
EC50 (read-out: Activity): > 1 µM

Cc1nc2cc(-c3ccc4c(c3)CCCC4)nn2c(-c2ccc(Cl)cc2)c1[C@H](OC(C)(C)C)C(=O)O [Example 155, (S)-2-(tert-Butoxy)-2-(7-(4-chlorophenyl)-5-methyl-2-(5,6,7,8-tetrahydronaphthalen-2-yl)pyrazolo[1,5-a]pyrimidin-6-yl)acetic acid]
EC50 (read-out: Activity): 0.1 to 1 µM

Cc1ccc(-c2c([C@H](OC(C)(C)C)C(=O)O)c(C)nc3cc(-c4ccc5c(c4)CCCC5)nn23)c(Cl)c1 [Example 156, (2S)-2-(tert-Butoxy)-2-(7-(2-chloro-4-methylphenyl)-5-methyl-2-(5,6,7,8-tetrahydronaphthalen-2-yl)pyrazolo[1,5-a]pyrimidin-6-yl)acetic acid]
EC50 (read-out: Activity): > 1 µM

Cc1nc2cc(-c3ccc4c(c3)CCCC4)nn2c(-c2ccc(Cl)cc2F)c1[C@H](OC(C)(C)C)C(=O)O [Example 157, (2S)-2-(tert-Butoxy)-2-(7-(4-chloro-2-fluorophenyl)-5-methyl-2-(5,6,7,8-tetrahydronaphthalen-2-yl)pyrazolo[1,5-a]pyrimidin-6-yl)acetic acid]
EC50 (read-out: Activity): 0.1 to 1 µM

Cc1nc2c(C)c(-c3cccc(Cl)c3)nn2c(-c2cc(F)c3c(c2C)CCCO3)c1[C@H](OC(C)(C)C)C(=O)O [Example 158, (2S)-2-(tert-Butoxy)-2-(2-(3-chlorophenyl)-7-(8-fluoro-5-methylchroman-6-yl)-3,5-dimethylpyrazolo[1,5-a]pyrimidin-6-yl)acetic acid]
EC50 (read-out: Activity): 0.1 to 1 µM

Cc1nc2c(C)c(-c3cccc(-c4cc(F)c5c(c4C)CCCO5)c3)nn2c(-c2cc(F)c3c(c2C)CCCO3)c1[C@H](OC(C)(C)C)C(=O)O [Example 159, (2S)-2-(tert-Butoxy)-2-(7-(8-fluoro-5-methylchroman-6-yl)-2-(3-(8-fluoro-5-methylchroman-6-yl)phenyl)-3,5-dimethylpyrazolo[1,5-a]pyrimidin-6-yl)acetic acid]
EC50 (read-out: Activity): < 0.1 µM

COc1ccncc1-c1cccc(-c2nn3c(-c4cc(F)c5c(c4C)CCCO5)c([C@H](OC(C)(C)C)C(=O)O)c(C)nc3c2C)c1 [Example 160, (2S)-2-(tert-Butoxy)-2-(7-(8-fluoro-5-methylchroman-6-yl)-2-(3-(4-methoxypyridin-3-yl)phenyl)-3,5-dimethylpyrazolo[1,5-a]pyrimidin-6-yl)acetic acid]
EC50 (read-out: Activity): < 0.1 µM
EC50 (read-out: EC50 μM): 0.01 µM

Cc1nc2c(C)c(-c3cccc(-c4ccc5c(cnn5C)c4)c3)nn2c(-c2cc(F)c3c(c2C)CCCO3)c1[C@H](OC(C)(C)C)C(=O)O [Example 161, (2S)-2-(tert-Butoxy)-2-(7-(8-fluoro-5-methylchroman-6-yl)-3,5-dimethyl-2-(3-(1-methyl-1H-indazol-5-yl)phenyl)pyrazolo[1,5-a]pyrimidin-6-yl)acetic acid]
EC50 (read-out: Activity): < 0.1 µM

Cc1nc2c(C)c(-c3cccc(-c4ccccc4F)c3)nn2c(-c2cc(F)c3c(c2C)CCCO3)c1[C@H](OC(C)(C)C)C(=O)O [Example 162, (2S)-2-(tert-Butoxy)-2-(7-(8-fluoro-5-methylchroman-6-yl)-2-(2′-fluoro-[1,1′-biphenyl]-3-yl)-3,5-dimethylpyrazolo[1,5-a]pyrimidin-6-yl)acetic acid]
EC50 (read-out: Activity): < 0.1 µM

Cc1nc2c(C)c(-c3ccccc3)nn2c(-c2cc(F)c3c(c2C)CCCO3)c1[C@H](OC(C)(C)C)C(=O)O [Example 163, (2S)-2-(tert-Butoxy)-2-(7-(8-fluoro-5-methylchroman-6-yl)-3,5-dimethyl-2-phenylpyrazolo[1,5-a]pyrimidin-6-yl)acetic acid]
EC50 (read-out: Activity): < 0.1 µM
EC50 (read-out: EC50 μM): 0.2 µM
